This is an account of results in patent publication US4857507A, “Angiotensinogen analogs” (Abbott Laboratories, priority 1987, dated 1989).

The target in the experiment is T1, human renal renin (Homo sapiens, UniProt P00797).
T1 construct: human renal renin, free from acid proteolytic activity; from tissue; host or cells: human kidney (from the word 'renal')
T1 sequence (P00797 67-406): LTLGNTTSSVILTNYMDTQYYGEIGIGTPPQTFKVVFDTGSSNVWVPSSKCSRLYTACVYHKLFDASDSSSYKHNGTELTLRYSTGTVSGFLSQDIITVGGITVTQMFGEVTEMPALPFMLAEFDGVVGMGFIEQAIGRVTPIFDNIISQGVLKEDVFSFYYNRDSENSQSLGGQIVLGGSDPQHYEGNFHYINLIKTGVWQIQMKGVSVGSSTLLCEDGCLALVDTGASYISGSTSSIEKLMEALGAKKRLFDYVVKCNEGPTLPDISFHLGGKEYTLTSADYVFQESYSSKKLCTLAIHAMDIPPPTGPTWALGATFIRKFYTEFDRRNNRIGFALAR
In words: inhibition of human renal renin in vitro, angiotensin I formed measured by radioimmunoassay. The experiment is classed as biochemical. The conditions noted are these: 37° C., pH 6.0; for IC50: human renal renin with human renin substrate (angiotensinogen). The protocol: At the end of the incubation, the amount of angiotensin I formed is measured by radioimmunoassay and the molor concentration required to cause 50% inhibition, expressed as the IC50, is calculated.

In turn, `CC(C)CCNC(=O)C(CC(O)C(CC(C)C)NC(=O)C(C)NC(=O)C(Cc1ccccc1)NC(=O)OC(C)(C)C)c1ccccc1` (stereo not drawn) [Example 46, Boc-Phe-Ala amide of 5-amino-4-hydroxy-77-methyl-2-phenyloctanoic acid isoamyl amide] showed an IC50 of 3 µM.
Take `CCCSCC(=O)NCC[C@H](O)[C@H](CC1CCCCC1)NC(=O)C(Cc1cnc[nH]1)NC(=O)C(Cc1ccccc1)NC(=O)OC(C)(C)C` (stereo partly drawn) [Example 67, Boc-Phe-His Amide of (3S,4S)-1-(2-Propylmercaptoacetylamino)-3-hydroxy-4-amino-5-cyclohexylpentane]: half-maximal inhibition (IC50) required 0.025 µM.
With `CC(C)(C)OC(=O)NC(Cc1ccccc1)C(=O)NC(Cc1cnc[nH]1)C(=O)N[C@@H](CC1CCCCC1)[C@@H](O)CCN=[N+]=[N-]` (stereo partly drawn) [Example 125, Boc-Phe-His Amide of (3S,4S)-1-Azido-3-hydroxy-4-amino-5-cyclohexylpentane], it took 0.02 µM to reach half-maximal inhibition (IC50).
As to `CC(C)C[C@H](NC(=O)C(C)NC(=O)C(Cc1ccccc1)NC(=O)OC(C)(C)C)[C@@H](O)CCOc1ccccc1` (stereo partly drawn) [Example 21, Boc-Phe-Ala amide of (3S,4S)-4-amino-3-hydroxy-6-methyl-1-phenoxyheptane], the IC50 was determined as 2 µM.
The compound `CC(C)CCC(=O)NCC(F)(F)[C@H](O)[C@H](CC1CCCCC1)NC(=O)C(CC(C)C)NC(=O)C(Cc1ccccc1)NC(=O)OC(C)(C)C` (stereo partly drawn) [Example 85, Boc-Phe-Leu amide of (3R,4S)-3-hydroxy-4-amino-2,2-difluoro-1-isopentylcarbonylamino-5-cyclohexylpentane] displayed an IC50 of 0.02 µM.
For `CC(C)CCC(=O)NCC[C@H](O)[C@H](CC1CCCCC1)NC(=O)C(Cc1ccncn1)NC(=O)[C@H](Cc1ccccc1)NC(=O)OC(C)(C)C` (mixture of isomers) [Example 62, Boc-Phe-dl-4-pyrimidinylalanine Amide of (3S,4S)-1-(3-Methylbutylcarbonylamino)-3-hydroxy-4-amino-5-cyclohexylpentane], the IC50 is 0.02 µM.
On to `CC(C)CCC(=O)NCC[C@H](O)[C@H](CC1CCCCC1)NC(=O)C(C)NC(=O)C(Cc1ccccc1)NC(=O)OC(C)(C)C` (stereo partly drawn) [Example 34, Boc-Phe-Ala Amide of (3S,4S)-1-(3-Methylbutylcarbonylamino)-3-hydroxy-4-amino-5-cyclohexylpentane], for which the IC50 is 0.03 µM.
In turn, `CC(C)CC(NC(=O)C(Cc1ccccc1)NC(=O)OC(C)(C)C)C(=O)N[C@@H](CC1CCCCC1)[C@@H](O)C(F)=CSC(C)C` (stereo partly drawn) [Example 83(B), Boc-Phe-Leu amide of (3R,4S,EZ)-3-hydroxy-4-amino-2-fluoro-1-isopropylmercapto-5-cyclohexyl-1-pentene] came in with an IC50 of 0.05 µM.
On the same count and under the same terms, the value for “Boc-Phe-His amide of (3S,4S)-4-amino-3-hydroxy-11-isoamylsulfonyl-6-methylheptane [Example 22]” was 0.1 µM; that for `CC(C)CC(NC(=O)C(Cc1ccccc1)NC(=O)OC(C)(C)C)C(=O)N[C@@H](CC1CCCCC1)C(=O)C(F)(F)CSC(C)C` (stereo partly drawn) [Example 93, Boc-Phe-Leu amide of (4S)-3-oxo-4-amino-2,2-difluoro-1-isopropylmercapto-5-cyclohexylpentane] was 0.0025 µM; that for `CC(C)CCSCC[C@H](O)[C@H](CC(C)C)NC(=O)[C@H](C)NC(=O)[C@H](Cc1ccccc1)NC(=O)OC(C)(C)C` [Example 17, Boc-Phe-Ala amide of (3S,4S)-4-amino-3-hydroxy-1-isoamylmercapto-6-methylheptane] was 5.5 µM.
“Boc-Phe-3-methyl-His Amide of (3S,4S)-1-(3-Methylbutylcarbonylamino)-3-hydroxy-4-amino-5-cyclohexylpentane [Example 52]”: it took 0.015 µM to reach half-maximal inhibition (IC50).
In the case of `CC(C)CC(NC(=O)C(Cc1ccccc1)NC(=O)OC(C)(C)C)C(=O)N[C@@H](CC1CCCCC1)[C@@H](O)C(F)(F)CS(=O)(=O)C(C)C` (stereo partly drawn) [Example 86, Boc-Phe-Leu amide of (3R,4S)-3-hydroxy-4-amino-2,2-difluoro-1-isopropylsulfonyl-5-cyclohexylpentane], the IC50 stood at 0.01 µM.
On the same count and under the same terms, then `CC(C)CC(NC(=O)C(Cc1ccccc1)NC(=O)OC(C)(C)C)C(=O)N[C@@H](CC1CCCCC1)[C@@H](O)C(F)=CS(=O)(=O)C(C)C` (stereo partly drawn) [Example 87, Boc-Phe-Leu amide of (3R,4S,EZ)-3-hydroxy-4-amino-2-fluoro-1-isopropyl-sulfonyl-5-cyclohexyl-1- pentene], with 0.0045 µM.
On to `CC(C)CCC(=O)NC(CC(O)C(CC(C)C)NC(=O)[C@H](C)NC(=O)[C@H](Cc1ccccc1)NC(=O)OC(C)(C)C)c1ccccc1` (stereo partly drawn) [Example 42, Boc-Phe-Ala amide of 4-amino-3-hydroxy-6-methyl-1-(4-methylvaleryl)amino-1-phenylheptane], for which the “% inhibition at 10^-5 M” value (compound at 10^-5 M, human renin substrate (angiotensinogen)) was 41%.
`CC(C)CCC(=O)NCC[C@H](O)[C@H](CC1CCCCC1)NC(=O)C(Cc1cscn1)NC(=O)C(Cc1ccccc1)NC(=O)OC(C)(C)C` (mixture of isomers) [Example 59, Boc-Phe-dl-4-thiazolylalanine Amide of (3S,4S)-1-(3-Methylbutylcarbonylamino)-3-hydroxy-4-amino-5-cyclohexylpentane] yielded an IC50 of 0.01 µM.
The compound `CC(C)CCS(=O)(=O)CC[C@H](O)[C@H](CC(C)C)NC(=O)[C@H](C)NC(=O)[C@H](Cc1ccccc1)NC(=O)OC(C)(C)C` [Example 19, Boc-Phe-Ala amide of (3S,4S)-4-amino-3-hydroxy-1-isoamylsulfonyl-6-methylheptane] yielded an IC50 of 2.5 µM.
`CC(C)CC(NC(=O)C(Cc1ccccc1)NC(=O)OC(C)(C)C)C(=O)N[C@@H](CC1CCCCC1)C(=O)C(F)(F)CS(=O)(=O)C(C)C` (stereo partly drawn) [Example 95, Boc-Phe-Leu amide of (4S)-3-oxo-4-amino-2,2-difluoro-1-isopropylsulfonyl-5-cyclohexylpentane] showed an IC50 of 0.001 µM.
Still for that read-out and setting: the value for `CC(C)C[C@H](NC(=O)[C@H](Cc1ccccc1)NC(=O)OC(C)(C)C)C(=O)N[C@@H](CC1CCCCC1)C(=O)/C(F)=C/S(=O)(=O)C(C)C` [Example 96, Boc-Phe-Leu amide of (Z,4S)-3-oxo-4-amino-2-fluoro-1-isopropylsulfonyl-5-cyclohexyl-1-pentene] was 0.02 µM.
